# Biological target: RORγt (Mus musculus, UniProt P51450, T352K)
# Assay: RORγt S2 cell Gal4-luciferase reporter assay
# Conditions: for Emax: read-out: Efficacy (%)
# [1] = IC50(μM), Drosophila S2 cells, Gal4-RORγt luciferase reporter, 20 hr
# [2] = Drosophila S2 cells, Gal4-RORγt luciferase reporter, 20 hr
# [3] = S2 cell RORg IC50 μM, S2 cell reporter assay, listed for comparison
# RORγt, sequence (P51450 with tags, fused parts or gaps T352K): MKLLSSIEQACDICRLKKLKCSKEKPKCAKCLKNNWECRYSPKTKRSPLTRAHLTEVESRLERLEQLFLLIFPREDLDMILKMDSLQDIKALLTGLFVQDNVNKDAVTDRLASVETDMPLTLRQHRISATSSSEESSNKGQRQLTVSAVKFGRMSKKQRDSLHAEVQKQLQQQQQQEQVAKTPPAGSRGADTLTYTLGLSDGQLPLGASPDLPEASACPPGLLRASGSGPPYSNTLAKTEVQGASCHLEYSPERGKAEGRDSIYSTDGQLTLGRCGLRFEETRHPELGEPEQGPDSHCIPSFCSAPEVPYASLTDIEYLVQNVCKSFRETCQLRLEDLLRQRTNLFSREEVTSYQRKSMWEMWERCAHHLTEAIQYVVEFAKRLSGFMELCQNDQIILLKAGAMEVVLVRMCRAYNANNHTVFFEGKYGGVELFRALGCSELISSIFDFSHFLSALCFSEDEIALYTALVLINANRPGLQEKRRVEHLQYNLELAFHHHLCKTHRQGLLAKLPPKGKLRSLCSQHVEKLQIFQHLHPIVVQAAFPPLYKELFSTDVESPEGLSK
Molecule,IC50 [1],Emax,IC50 [2],IC50 [3],"Efficacy (%) (% of the maximal response of control inhibitor (Digoxin), set at 100%)"
"COc1cc(O)c(C(CC(=O)N2CC(C)CC(C)C2)c2cccc(OC(F)(F)F)c2)c(OC)c1 (stereo not drawn) [Compound 93, 1-(3,5-Dimethylpiperidin-1-yl)-3-(2-hydroxy-4,6-dimethoxyphenyl)-3-(3-(trifluoromethoxy)phenyl)propan-1-one]",1 to 10 µM,93.3%,–,–,–
"COc1cc(O)c(C(CC(=O)N2CC(C)CC(C)C2)c2cccc(OC(C)C)c2)c(OC)c1 (stereo not drawn) [Compound 94, 1-(3,5-Dimethylpiperidin-1-yl)-3-(2-hydroxy-4,6-dimethoxyphenyl)-3-(3-isopropoxyphenyl)propan-1-one]",1 to 10 µM,90.5%,–,–,–
COc1cc(O)c(C(CC(=O)N2CC(C)CC(C)C2)c2ccc(C(=O)NC3CC3)cc2)c(OC)c1 (stereo not drawn) [Compound 95],1 to 10 µM,93.1%,–,–,–
"COc1cc(O)c(C(CC(=O)N2CC(C)CC(C)C2)c2ccc(OC(F)(F)F)cc2)c(OC)c1 (stereo not drawn) [Compound 96, 1-(3,5-Dimethylpiperidin-1-yl)-3-(2-hydroxy-4,6-dimethoxyphenyl)-3-(4-(trifluoromethoxy)phenyl)propan-1-one]",1 to 10 µM,94.8%,–,–,–
COc1cc(O)c(C(CC(=O)N2CC(C)CC(C)C2)c2cc(Cl)cc(Cl)c2)c(OC)c1 (stereo not drawn) [Compound 97],11 to 50 µM,61.5%,–,–,–
COc1cc(O)c(C(CC(=O)N2CC(C)CC(C)C2)c2ccc(C(=O)O)cc2)c(OC)c1 (stereo not drawn) [Compound 99],1 to 10 µM,92.6%,–,–,–
"COc1cc(O)c(C(CC(=O)N2CC(C)CC(C)C2)c2ccc(C(C)=O)cc2)c(OC)c1 (stereo not drawn) [Compound 100, 3-(4-Acetylphenyl)-1-(3,5-dimethylpiperidin-1-yl)-3-(2-hydroxy-4,6-dimethoxyphenyl)propan-1-one]",< 1 µM,–,–,–,–
"COc1cc(O)c(C(CC(=O)N2CC(C)CC(C)C2)c2cccc(C(=O)O)c2)c(OC)c1 (stereo not drawn) [Compound 101, 3-(3-(3,5-Dimethylpiperidin-1-yl)-1-(2-hydroxy-4,6-dimethoxyphenyl)-3-oxopropyl)benzoic acid]",1 to 10 µM,–,–,–,–
COc1cc(O)c(C(CC(=O)N2CC(C)CC(C)C2)c2cccc(F)c2)c(OC)c1 (stereo not drawn) [Compound 102],1 to 10 µM,99.9%,–,–,–
COc1cc(O)c(C(CC(=O)N2CC(C)CC(C)C2)c2ccccc2Cl)c(OC)c1 (stereo not drawn) [Compound 103],1 to 10 µM,95.8%,–,–,–
COc1cc(O)c(C(CC(=O)N2CC(C)CC(C)C2)c2ccc3c(c2)OC(F)(F)O3)c(OC)c1 (stereo not drawn) [Compound 104],1 to 10 µM,97.3%,–,–,–
"COc1cc(O)c(C(CC(=O)N2CC(C)CC(C)C2)c2ccc(SC)cc2)c(OC)c1 (stereo not drawn) [Compound 105, 1-(3,5-Dimethylpiperidin-1-yl)-3-(2-hydroxy-4,6-dimethoxyphenyl)-3-(4-(methylthio)phenyl)propan-1-one]",< 1 µM,94.7%,–,–,–
"COc1cc(O)c(C(CC(=O)N2CC(C)CC(C)C2)c2cc(F)c(F)c(F)c2)c(OC)c1 (stereo not drawn) [Compound 109, 1-(3,5-Dimethylpiperidin-1-yl)-3-(2-hydroxy-4,6-dimethoxyphenyl)-3-(3,4,5-trifluorophenyl)propan-1-one]",1 to 10 µM,97.3%,–,–,–
COc1cc(O)c(C(CC(=O)N2CC(C)CC(C)C2)c2ccc(OCc3ccccc3)cc2)c(OC)c1 (stereo not drawn) [Compound 110],–,–,1 to 10 µM,–,–
COc1cc(O)c(C(CC(=O)N2CC(C)CC(C)C2)c2ccc(C(N)=O)cc2)c(OC)c1 (stereo not drawn) [Compound 111],1 to 10 µM,–,–,–,–
CCc1ccc(O)c(C(CC(=O)N2CCCC(C)C2)c2ccc3c(c2)OCO3)c1 (stereo not drawn) [Compound 112],11 to 50 µM,106%,–,–,–
Cc1ccc(C)c(C(CC(=O)N2CCCC(C)C2)c2ccc3c(c2)OCO3)c1O (stereo not drawn) [Compound 113],11 to 50 µM,81.5%,–,–,–
CC1CCCN(C(=O)CC(c2ccc3c(c2)OCO3)c2cc(C(C)C)ccc2O)C1 (stereo not drawn) [Compound 114],11 to 50 µM,87.3%,–,–,–
Cc1cc(C)c(O)c(C(CC(=O)N2CCCC(C)C2)c2ccc3c(c2)OCO3)c1 (stereo not drawn) [Compound 116],11 to 50 µM,48.2%,–,–,–
CC1CCCN(C(=O)CC(c2ccc3c(c2)OCO3)c2c(O)ccc3ccccc23)C1 (stereo not drawn) [Compound 118],1 to 10 µM,94.9%,–,1 to 10 µM,–
CCOc1ccc(O)c(C(CC(=O)N2CCCC(C)C2)c2ccc3c(c2)OCO3)c1 (stereo not drawn) [Compound 119],11 to 50 µM,94.3%,–,11 to 20 µM,–
CC1CCCN(C(=O)CC(c2ccc3c(c2)OCO3)c2ccc(O)cc2O)C1 (stereo not drawn) [Compound 122],> 50 µM,–,–,–,–
C#CCOc1cc(OC)cc(OC)c1C(CC(=O)N1CCCC(C)C1)c1ccc2c(c1)OCO2 (stereo not drawn) [Compound 123],1 to 10 µM,98%,–,–,–
COc1cc(OC)c(C(CC(=O)N2CCCC(C)C2)c2ccc3c(c2)OCO3)c(OCc2ccccc2)c1 (stereo not drawn) [Compound 124],1 to 10 µM,94.1%,–,1 to 10 µM,–
Cc1ccc(C(CC(=O)N2CCCC(C)C2)c2ccc3c(c2)OCO3)c(O)c1 (stereo not drawn) [Compound 125],11 to 50 µM,51.6%,–,–,–
Cc1cccc(O)c1C(CC(=O)N1CCCC(C)C1)c1ccc2c(c1)OCO2 (stereo not drawn) [Compound 126],11 to 50 µM,43.5%,–,–,–

Molecule,IC50 [1],Emax,IC50 [2],IC50 [3],"Efficacy (%) (% of the maximal response of control inhibitor (Digoxin), set at 100%)"
CC1CCCN(C(=O)CC(c2ccc3c(c2)OCO3)c2c(O)cccc2Cl)C1 (stereo not drawn) [Compound 127],11 to 50 µM,27.1%,–,–,–
COc1cc2ccccc2c(O)c1C(CC(=O)N1CCCC(C)C1)c1ccc2c(c1)OCO2 (stereo not drawn) [Compound 128],11 to 50 µM,80%,–,–,–
COc1cc(O)c(C(CC(=O)N2CCCC(C)C2)c2ccc3c(c2)OCO3)c2ccccc12 (stereo not drawn) [Compound 129],11 to 50 µM,76.9%,–,–,–
COc1ccc(C)c(O)c1C(CC(=O)N1CCCC(C)C1)c1ccc2c(c1)OCO2 (stereo not drawn) [Compound 130],11 to 50 µM,77.5%,–,–,–
CC1CCCN(C(=O)CC(c2ccc3c(c2)OCO3)c2ccc(I)cc2O)C1 (stereo not drawn) [Compound 131],11 to 50 µM,33.2%,–,–,–
CC1CCCN(C(=O)CC(c2ccc3c(c2)OCO3)c2ccc(F)cc2O)C1 (stereo not drawn) [Compound 132],1 to 10 µM,30.4%,–,–,–
CC(=O)Nc1ccc(C(CC(=O)N2CC(C)CC(C)C2)c2ccc3c(c2)OCO3)c(O)c1 (stereo not drawn) [Compound 133],1 to 10 µM,103%,–,–,–
COc1c(C(CC(=O)N2CC(C)CC(C)C2)c2ccc3c(c2)OCO3)c(O)cc2occc12 (stereo not drawn) [Compound 139],< 1 µM,94.5%,–,–,–
"COc1cccc(O)c1C(CC(=O)N1CC(C)CC(C)C1)c1ccc2c(c1)OCO2 (stereo not drawn) [Compound 140, 3-(Benzo[d][1,3]dioxol-5-yl)-1-(3,5-dimethylpiperidin-1-yl)-3-(2-hydroxy-6-methoxyphenyl)propan-1-one]",< 1 µM,96.5%,–,–,–
"CC1CC(C)CN(C(=O)CC(c2ccc(-n3cncn3)cc2)c2ccc3c(c2)OCO3)C1 (stereo not drawn) [Compound 141, 3-(4-(1H-1,2,4-Triazol-1-yl)phenyl)-3-(benzo[d][1,3]dioxol-5-yl)-1-(3,5-dimethylpiperidin-1-yl)propan-1-one]",11 to 50 µM,106%,–,–,–
CC1CC(C)CN(C(=O)CC(c2ccc3c(c2)OCO3)c2cccc(F)c2O)C1 (stereo not drawn) [Compound 143],11 to 50 µM,86.4%,–,–,–
CC1CC(C)CN(C(=O)CC(c2ccc3c(c2)OCO3)c2ccc(F)cc2O)C1 (stereo not drawn) [Compound 144],11 to 50 µM,97.3%,–,–,–
CC1CC(C)CN(C(=O)CC(c2ccc3c(c2)OCO3)c2cc(F)ccc2O)C1 (stereo not drawn) [Compound 145],1 to 10 µM,79.7%,–,–,–
CC1CC(C)CN(C(=O)CC(c2ccc3c(c2)OCO3)c2c(O)ccc3cccnc23)C1 (stereo not drawn) [Compound 146],1 to 10 µM,94.1%,–,–,–
O=C(CC(c1ccc2c(c1)OCO2)c1c(O)ccc2ccccc12)N1CCCCC1 (stereo not drawn) [Compound 147],11 to 50 µM,88.1%,–,–,–
"COc1cc(OC)c(C(c2ccccc2)C(C)(C)C(=O)N2CC(C)CC(C)C2)c(OC)c1 (stereo not drawn) [Compound 149, 1-(3,5-Dimethylpiperidin-1-yl)-2,2-dimethyl-3-phenyl-3-(2,4,6-trimethoxyphenyl)propan-1-one]",1 to 10 µM,93.8%,–,1 to 10 µM,–
COc1cc(OC)c(C(c2ccccc2)C(C)(C)C(=O)N2CC(C)OC(C)C2)c(OC)c1 (stereo not drawn) [Compound 150],1 to 10 µM,91.6%,–,–,–
COc1cc(OC)c(C(c2ccccc2)C(C)(C)C(=O)N2CC3CC4CC(C3)CC2C4)c(OC)c1 (stereo not drawn) [Compound 151],> 50 µM,118%,–,–,–
COc1cc(OC)c(C(c2ccccc2)C(C)(C)C(=O)N2CC3CCC2C3)c(OC)c1 (stereo not drawn) [Compound 152],11 to 50 µM,50.7%,–,–,–
COc1cc(OC)c(C(c2ccccc2)C(C)(C)C(=O)N2C3CCC2CC3)c(OC)c1 (stereo not drawn) [Compound 153],1 to 10 µM,36.5%,–,–,–
COc1cc(OC)c(C(c2ccccc2)C(C)(C)C(=O)NC2CC(C)(C)CC(C)(C)C2)c(OC)c1 (stereo not drawn) [Compound 154],> 50 µM,–,–,–,–
CCCN(C(=O)C(C)(C)C(c1ccccc1)c1c(OC)cc(OC)cc1OC)C1CCCC(C)C1 (stereo not drawn) [Compound 155],> 50 µM,–,–,–,–
COc1ccc2ccccc2c1C(c1ccc(F)cc1)C(C)(C)C(=O)N1CC(C)OC(C)C1 (stereo not drawn) [Compound 156],11 to 50 µM,99.9%,–,–,–
COc1ccc2ccccc2c1C(c1ccc(F)cc1)C(C)(C)C(=O)N1CC(C)CC(C)C1 (stereo not drawn) [Compound 157],1 to 10 µM,94.4%,–,–,–
"N-(3-(3-(3,5-Dimethylpiperidin-1-yl)-1-(2-hydroxy-4,6-dimethoxyphenyl)-3-oxopropyl)phenyl)methanesulfonamide [Compound 82]",–,–,< 1 µM,–,−95.39%
